In patent publication US8637472B2, “Optimized dengue virus entry inhibitory peptide (10AN)” (University of Washington Through Its Center for …, priority 2007, dated 2014):
Residues, ends and D or L forms follow the SMILES beside them.

System: LLCMK-2 cells
Test: Cytotoxicity assay (TACS MTT, mitochondrial reductase activity)
Assay type: cell-based, African green monkey
Settings: confluent LLCMK-2 monolayers; concentration ranges that showed viral inhibition; compared to medium only controls
Method: The cytotoxicity of the chemistries was measured by monitoring mitochondrial reductase activity using the TACS™ MTT cell proliferation assay (R&D Systems, Inc., Minneapolis, Minn.) according to the manufacturer's instructions. Dilutions of chemistries in serum-free DMEM were added to confluent monolayers of LLCMK-2 cells in 96-well plates for 1 h at 37° C., similar to the focus forming inhibition assays, and subsequently incubated at 37° C. with 5% (v/v) CO2 for 24 h. Absorbance at 560 nm was measured using a Tecan GeniosPro plate reader (Tecan US, Durham, N.C.).

CC[C@H](C)[C@H](NC(=O)[C@H](CC(C)C)NC(=O)[C@@H](NC(=O)[C@H](Cc1ccccc1)NC(=O)[C@H](Cc1c[nH]c2ccccc12)NC(=O)[C@@H](N)Cc1ccccc1)[C@@H](C)O)C(=O)N[C@@H](CCCCN)C(=O)N[C@H](C(=O)N[C@@H](CCC(N)=O)C(=O)N[C@@H](C)C(=O)N[C@@H](CCCCN)C(=O)N[C@@H](CCC(N)=O)C(=O)N1CCC[C@H]1C(=O)N[C@@H](C)C(=O)N[C@@H](CCCNC(=N)N)C(=O)N[C@@H](Cc1ccc(O)cc1)C(=O)N[C@@H](CCCNC(=N)N)C(=O)N[C@@H](CCCNC(=N)N)C(=O)N[C@@H](Cc1ccccc1)C(=O)N[C@@H](CS)C(=O)O)[C@@H](C)O [10AN] (H-FWFTLIKTQAKQPARYRRFC-OH)
cytotoxicity (mitochondrial reductase activity of target cells): not due to toxicity
